According to US10131652B2, “Pyrimidinyloxy benzene derivatives as herbicides” (E. I. DU PONT DE NEMOURS AND COMPANY, priority 2014, dated 2018):

Legend:
Type in all cases: in vivo
[1] = tested on: galium (catchweed bedstraw, Galium aparine); experiment: Test B postemergence plant response
How it was run: (§1)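 Injury was assessed visually about 10 days after treatment, scored from 0 (no effect) to 100 (complete control) by comparison with untreated controls. Test chemicals had been applied postemergence to potted plants at the one- to two-leaf stage, grown in loam soil and sand in a greenhouse.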

[2] = tested on: blackgrass (Alopecurus myosuroides); experiment: Test B postemergence plant response
How it was run: as §1

[3] = tested on: oilseed rape (Brassica napus); experiment: Test D pre-/postemergence plant response
How it was run: (§2)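 Plants are held in a greenhouse 13 to 15 days after spraying, then injury is rated by eye relative to controls on a 0 to 100 scale. Treatments are preemergence on freshly sown loam/sand pots or postemergence at 1- to 4-leaf stage in peat-based medium; surfactant-containing solvent formulation.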

corn (Zea mays) = experiment: Test D pre-/postemergence plant response
How it was run: as §2

[4] = tested on: pigweed (Amaranthus retroflexus); experiment: Test D pre-/postemergence plant response
How it was run: as §2

[5] = tested on: morningglory (Ipomoea coccinea); experiment: Test D pre-/postemergence plant response
How it was run: as §2

soybean (Glycine max) = experiment: Test D pre-/postemergence plant response
How it was run: as §2

[6] = tested on: giant foxtail (Setaria faberii); experiment: Test D pre-/postemergence plant response
How it was run: as §2

[7] = tested on: Italian ryegrass (Lolium multiflorum); experiment: Test D pre-/postemergence plant response
How it was run: as §2

[8] = tested on: barnyardgrass (Echinochloa crus-galli); experiment: Test D pre-/postemergence plant response
How it was run: as §2

[9] = tested on: ragweed (common ragweed, Ambrosia elatior); experiment: Test D pre-/postemergence plant response
How it was run: as §2

[10] = tested on: waterhemp (common waterhemp, Amaranthus rudis); experiment: Test D pre-/postemergence plant response
How it was run: as §2

[11] = tested on: yellow nutsedge (Cyperus esculentus); experiment: Test D pre-/postemergence plant response
How it was run: as §2

[12] = tested on: chickweed (common chickweed, Stellaria media); experiment: Test D postemergence plant response; details: for Plant response rating (scale 0 to 100), Chickweed: 16 g ai/ha; for Chickweed plant response rating: 31 g ai/ha, scale 0 to 100 (0 no effect, 100 complete control); for Plant response rating, Chickweed: scale 0 to 100, 0 no effect, 100 complete control
How it was run: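 Postemergence spray on plants 2–18 cm tall (1- to 4-leaf stage), grown in pots of peat/vermiculite medium. Plants were kept in a greenhouse for 13–15 days, then visually rated against untreated controls on a 0 (no effect) to 100 (complete control) scale.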

[13] = 125 g ai/ha, postemergence, 0 to 100 scale, 0 no effect, 100 complete control
[14] = Postemergence, 500 g ai/ha, 0 to 100 scale (0 no effect, 100 complete control)
[15] = Postemergence, 31 g ai/ha, scale 0 to 100 (0 no effect, 100 complete control)
[16] = Postemergence, 62 g ai/ha, scale 0 to 100, 0 no effect, 100 complete control
[17] = Postemergence, 125 g ai/ha, scale 0 to 100, 0 no effect, 100 complete control
[18] = Preemergence, 16 g ai/ha, scale 0 to 100 (0 no effect, 100 complete control)
[19] = Preemergence, 31 g ai/ha, scale 0 to 100 (0 no effect, 100 complete control)
[20] = Preemergence, 62 g ai/ha, scale 0 to 100 (0 no effect, 100 complete control)

Clc1cnc(Oc2ccccc2-c2cc(C3CC3)on2)nc1 [Compound 183]
100: Plant response rating, Galium [1, 13] | Plant response rating, Galium [1, 14] | Oilseed Rape plant response rating [3, 16] | Plant response rating, Oilseed Rape [3, 17] | Plant response rating (scale 0 to 100), Oilseed Rape ([3]; Preemergence, 125 g ai/ha) | Plant response rating, Oilseed Rape [3, 19] | Plant response rating, Oilseed Rape [3, 20] | Plant response rating (scale 0 to 100), Pigweed ([4]; Preemergence, 125 g ai/ha) | Plant response rating, Pigweed [4, 20] | Plant response rating (scale 0 to 100), Foxtail, Giant ([6]; Preemergence, 125 g ai/ha) | Plant response rating (scale 0 to 100), Waterhemp ([10]; Preemergence, 125 g ai/ha) | Plant response rating, Waterhemp [10, 19]
70: Plant response rating, Chickweed ([12]; 125 g ai/ha)
75: Morningglory plant response rating [5, 15] | Soybean plant response rating (soybean (Glycine max); [16]) | Waterhemp plant response rating [10, 16]
35: Plant response rating, Soybean (soybean (Glycine max); [20]) | Plant response rating, Foxtail, Giant [6, 19] | Ragweed plant response rating [9, 15]
15: Corn plant response rating (corn (Zea mays); [15]) | Plant response rating, Corn (corn (Zea mays); [16]) | Plant response rating, Ryegrass, Italian [7, 20] | Plant response rating (scale 0 to 100), Ragweed ([9]; Postemergence, 16 g ai/ha)
60: Plant response rating, Pigweed [4, 19] | Ragweed plant response rating [9, 16] | Chickweed plant response rating [12]
65: Plant response rating (scale 0 to 100), Morningglory ([5]; Postemergence, 16 g ai/ha) | Plant response rating (scale 0 to 100), Soybean (soybean (Glycine max); Postemergence, 16 g ai/ha) | Plant response rating, Ragweed [9, 17] | Plant response rating, Chickweed ([12]; 62 g ai/ha)
30: Plant response rating, Barnyardgrass [8, 20] | Plant response rating (scale 0 to 100), Chickweed [12]
85: Oilseed Rape plant response rating [3, 15] | Pigweed plant response rating [4, 15] | Pigweed plant response rating [4, 16]
10: Plant response rating (scale 0 to 100), Corn (corn (Zea mays); Postemergence, 16 g ai/ha) | Plant response rating, Soybean (soybean (Glycine max); [19]) | Plant response rating, Ryegrass, Italian [7, 17] | Plant response rating (scale 0 to 100), Ragweed ([9]; Preemergence, 125 g ai/ha) | Plant response rating, Waterhemp [10, 18]
95: Plant response rating, Pigweed [4, 17] | Plant response rating, Waterhemp [10, 20]
80: Plant response rating, Blackgrass [2, 13] | Plant response rating (scale 0 to 100), Soybean (soybean (Glycine max); Preemergence, 125 g ai/ha) | Plant response rating, Foxtail, Giant [6, 20] | Plant response rating (scale 0 to 100), Waterhemp ([10]; Postemergence, 16 g ai/ha) | Waterhemp plant response rating [10, 15]
98: Plant response rating, Waterhemp [10, 17]
0: Plant response rating, Corn (corn (Zea mays); [18]) | Plant response rating, Corn (corn (Zea mays); [19]) | Plant response rating, Corn (corn (Zea mays); [20]) | Plant response rating, Morningglory [5, 18] | Plant response rating, Morningglory [5, 19] | Plant response rating, Soybean (soybean (Glycine max); [18]) | Plant response rating (scale 0 to 100), Ryegrass, Italian ([7]; Postemergence, 16 g ai/ha) | Ryegrass, Italian plant response rating [7, 15] | Plant response rating, Ryegrass, Italian [7, 18] | Plant response rating, Ryegrass, Italian [7, 19] | Plant response rating, Ragweed [9, 18] | Plant response rating, Ragweed [9, 19] | Plant response rating, Ragweed [9, 20] | Plant response rating, Nutsedge, Yellow [11, 18] | Plant response rating, Nutsedge, Yellow [11, 19] | Plant response rating, Nutsedge, Yellow [11, 20]
55: Plant response rating (scale 0 to 100), Pigweed ([4]; Postemergence, 16 g ai/ha) | Soybean plant response rating (soybean (Glycine max); [15])
90: Plant response rating, Blackgrass [2, 14] | Morningglory plant response rating [5, 16] | Plant response rating, Morningglory [5, 17] | Plant response rating, Soybean (soybean (Glycine max); [17]) | Plant response rating (scale 0 to 100), Barnyardgrass ([8]; Preemergence, 125 g ai/ha)
40: Plant response rating (scale 0 to 100), Morningglory ([5]; Preemergence, 125 g ai/ha)
20: Plant response rating, Corn (corn (Zea mays); [17])
50: Plant response rating, Oilseed Rape [3, 18] | Plant response rating, Pigweed [4, 18] | Plant response rating (scale 0 to 100), Ryegrass, Italian ([7]; Preemergence, 125 g ai/ha)
5: Plant response rating (scale 0 to 100), Oilseed Rape ([3]; Postemergence, 16 g ai/ha) | Plant response rating (scale 0 to 100), Corn (corn (Zea mays); Preemergence, 125 g ai/ha) | Plant response rating, Morningglory [5, 20] | Plant response rating (scale 0 to 100), Foxtail, Giant ([6]; Postemergence, 16 g ai/ha) | Foxtail, Giant plant response rating [6, 15] | Plant response rating, Foxtail, Giant [6, 16] | Plant response rating, Foxtail, Giant [6, 17] | Plant response rating, Foxtail, Giant [6, 18] | Ryegrass, Italian plant response rating [7, 16] | Plant response rating (scale 0 to 100), Barnyardgrass ([8]; Postemergence, 16 g ai/ha) | Barnyardgrass plant response rating [8, 15] | Plant response rating, Barnyardgrass [8, 16] | Plant response rating, Barnyardgrass [8, 17] | Plant response rating, Barnyardgrass [8, 18] | Plant response rating, Barnyardgrass [8, 19] | Plant response rating (scale 0 to 100), Nutsedge, Yellow ([11]; Postemergence, 16 g ai/ha) | Nutsedge, Yellow plant response rating [11, 15] | Nutsedge, Yellow plant response rating [11, 16] | Plant response rating, Nutsedge, Yellow [11, 17] | Plant response rating (scale 0 to 100), Nutsedge, Yellow ([11]; Preemergence, 125 g ai/ha)

Clc1cnc(Oc2ccccc2-c2ccon2)nc1 [Compound 185]
40: Plant response rating, Galium [1, 13]
25: Morningglory plant response rating [5, 15] | Plant response rating, Ragweed [9, 17] | Waterhemp plant response rating [10, 15] | Waterhemp plant response rating [10, 16]
20: Ragweed plant response rating [9, 15]
65: Plant response rating, Morningglory [5, 17]
45: Plant response rating, Soybean (soybean (Glycine max); [17])
10: Plant response rating (scale 0 to 100), Pigweed ([4]; Postemergence, 16 g ai/ha) | Morningglory plant response rating [5, 16] | Plant response rating (scale 0 to 100), Ragweed ([9]; Postemergence, 16 g ai/ha)
50: Plant response rating, Blackgrass [2, 14] | Plant response rating, Pigweed [4, 17]
35: Pigweed plant response rating [4, 15] | Pigweed plant response rating [4, 16] | Soybean plant response rating (soybean (Glycine max); [16]) | Plant response rating (scale 0 to 100), Foxtail, Giant ([6]; Postemergence, 16 g ai/ha)
5: Plant response rating, Corn (corn (Zea mays); [16]) | Plant response rating, Corn (corn (Zea mays); [17]) | Foxtail, Giant plant response rating [6, 15] | Plant response rating, Foxtail, Giant [6, 16] | Plant response rating, Foxtail, Giant [6, 17] | Plant response rating, Barnyardgrass [8, 17] | Plant response rating (scale 0 to 100), Waterhemp ([10]; Postemergence, 16 g ai/ha) | Plant response rating, Chickweed ([12]; 62 g ai/ha) | Plant response rating, Chickweed ([12]; 125 g ai/ha)
15: Plant response rating (scale 0 to 100), Soybean (soybean (Glycine max); Postemergence, 16 g ai/ha) | Ragweed plant response rating [9, 16]
0: Plant response rating, Blackgrass [2, 13] | Plant response rating (scale 0 to 100), Oilseed Rape ([3]; Postemergence, 16 g ai/ha) | Oilseed Rape plant response rating [3, 15] | Oilseed Rape plant response rating [3, 16] | Plant response rating, Oilseed Rape [3, 17] | Plant response rating (scale 0 to 100), Corn (corn (Zea mays); Postemergence, 16 g ai/ha) | Corn plant response rating (corn (Zea mays); [15]) | Plant response rating (scale 0 to 100), Morningglory ([5]; Postemergence, 16 g ai/ha) | Plant response rating (scale 0 to 100), Ryegrass, Italian ([7]; Postemergence, 16 g ai/ha) | Ryegrass, Italian plant response rating [7, 15] | Ryegrass, Italian plant response rating [7, 16] | Plant response rating, Ryegrass, Italian [7, 17] | Plant response rating (scale 0 to 100), Barnyardgrass ([8]; Postemergence, 16 g ai/ha) | Barnyardgrass plant response rating [8, 15] | Plant response rating, Barnyardgrass [8, 16] | Plant response rating (scale 0 to 100), Nutsedge, Yellow ([11]; Postemergence, 16 g ai/ha) | Nutsedge, Yellow plant response rating [11, 15] | Nutsedge, Yellow plant response rating [11, 16] | Plant response rating (scale 0 to 100), Chickweed [12] | Chickweed plant response rating [12]
30: Soybean plant response rating (soybean (Glycine max); [15]) | Plant response rating, Waterhemp [10, 17] | Plant response rating, Nutsedge, Yellow [11, 17]
70: Plant response rating, Galium [1, 14]
